Results reported in patent publication US12559464B2, “Quinazolinone dione compounds and uses thereof” (Edgewise Therapeutics, Inc., priority 2023, dated 2026).

How the values were obtained:
[1] = tested on: myosin ATPase, Porcine Atria myofibrils; experiment: Myofibril ATPase assay, porcine atria myofibrils; format: biochemical; details: concentration required to reduce myosin ATP-ase activity by 25%; Porcine Atria Prep pCa 25 GEOM_MEAN
[2] = tested on: myosin ATPase, Rabbit Psoas myofibrils; experiment: Myofibril ATPase assay, rabbit psoas (skeletal) myofibrils; format: biochemical; details: Rabbit Psoas Prep pCa 25 GEOM_MEAN; for Rabbit Psoas EC25 (Y75 value): concentration required to reduce myosin ATP-ase activity by 25%
[3] = target: T1, myosin ATPase, Porcine Ventricle myofibrils (Sus scrofa, UniProt P79293); experiment: Myofibril ATPase assay, porcine ventricle myofibrils; format: biochemical, porcine (Yucatan minipigs); details: concentration required to reduce myosin ATP-ase activity by 25%; Porcine Ventricle Prep pCa 25 GEOM_MEAN
T1 construct: Myofibrils from porcine cardiac muscle was isolated from the left ventricle of Yucatan minipigs; tissue Exemplar Genetics; host or cells: left ventricle of Yucatan minipigs, myofibrils
How it was run: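 Myofibrils from Yucatan minipig left ventricle; ADP production coupled via PK-LDH to NADH loss, read kinetically at 340 nm every 1.5–2 min for 75 min in PIPES/MgCl2 pH 7.0 buffer. Slopes normalized to vehicle and fit to 4-parameter logistic; values are concentrations giving 75% (inhibition) or 125% (activation) of vehicle activity.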

T1 sequence (P79293 whole entry): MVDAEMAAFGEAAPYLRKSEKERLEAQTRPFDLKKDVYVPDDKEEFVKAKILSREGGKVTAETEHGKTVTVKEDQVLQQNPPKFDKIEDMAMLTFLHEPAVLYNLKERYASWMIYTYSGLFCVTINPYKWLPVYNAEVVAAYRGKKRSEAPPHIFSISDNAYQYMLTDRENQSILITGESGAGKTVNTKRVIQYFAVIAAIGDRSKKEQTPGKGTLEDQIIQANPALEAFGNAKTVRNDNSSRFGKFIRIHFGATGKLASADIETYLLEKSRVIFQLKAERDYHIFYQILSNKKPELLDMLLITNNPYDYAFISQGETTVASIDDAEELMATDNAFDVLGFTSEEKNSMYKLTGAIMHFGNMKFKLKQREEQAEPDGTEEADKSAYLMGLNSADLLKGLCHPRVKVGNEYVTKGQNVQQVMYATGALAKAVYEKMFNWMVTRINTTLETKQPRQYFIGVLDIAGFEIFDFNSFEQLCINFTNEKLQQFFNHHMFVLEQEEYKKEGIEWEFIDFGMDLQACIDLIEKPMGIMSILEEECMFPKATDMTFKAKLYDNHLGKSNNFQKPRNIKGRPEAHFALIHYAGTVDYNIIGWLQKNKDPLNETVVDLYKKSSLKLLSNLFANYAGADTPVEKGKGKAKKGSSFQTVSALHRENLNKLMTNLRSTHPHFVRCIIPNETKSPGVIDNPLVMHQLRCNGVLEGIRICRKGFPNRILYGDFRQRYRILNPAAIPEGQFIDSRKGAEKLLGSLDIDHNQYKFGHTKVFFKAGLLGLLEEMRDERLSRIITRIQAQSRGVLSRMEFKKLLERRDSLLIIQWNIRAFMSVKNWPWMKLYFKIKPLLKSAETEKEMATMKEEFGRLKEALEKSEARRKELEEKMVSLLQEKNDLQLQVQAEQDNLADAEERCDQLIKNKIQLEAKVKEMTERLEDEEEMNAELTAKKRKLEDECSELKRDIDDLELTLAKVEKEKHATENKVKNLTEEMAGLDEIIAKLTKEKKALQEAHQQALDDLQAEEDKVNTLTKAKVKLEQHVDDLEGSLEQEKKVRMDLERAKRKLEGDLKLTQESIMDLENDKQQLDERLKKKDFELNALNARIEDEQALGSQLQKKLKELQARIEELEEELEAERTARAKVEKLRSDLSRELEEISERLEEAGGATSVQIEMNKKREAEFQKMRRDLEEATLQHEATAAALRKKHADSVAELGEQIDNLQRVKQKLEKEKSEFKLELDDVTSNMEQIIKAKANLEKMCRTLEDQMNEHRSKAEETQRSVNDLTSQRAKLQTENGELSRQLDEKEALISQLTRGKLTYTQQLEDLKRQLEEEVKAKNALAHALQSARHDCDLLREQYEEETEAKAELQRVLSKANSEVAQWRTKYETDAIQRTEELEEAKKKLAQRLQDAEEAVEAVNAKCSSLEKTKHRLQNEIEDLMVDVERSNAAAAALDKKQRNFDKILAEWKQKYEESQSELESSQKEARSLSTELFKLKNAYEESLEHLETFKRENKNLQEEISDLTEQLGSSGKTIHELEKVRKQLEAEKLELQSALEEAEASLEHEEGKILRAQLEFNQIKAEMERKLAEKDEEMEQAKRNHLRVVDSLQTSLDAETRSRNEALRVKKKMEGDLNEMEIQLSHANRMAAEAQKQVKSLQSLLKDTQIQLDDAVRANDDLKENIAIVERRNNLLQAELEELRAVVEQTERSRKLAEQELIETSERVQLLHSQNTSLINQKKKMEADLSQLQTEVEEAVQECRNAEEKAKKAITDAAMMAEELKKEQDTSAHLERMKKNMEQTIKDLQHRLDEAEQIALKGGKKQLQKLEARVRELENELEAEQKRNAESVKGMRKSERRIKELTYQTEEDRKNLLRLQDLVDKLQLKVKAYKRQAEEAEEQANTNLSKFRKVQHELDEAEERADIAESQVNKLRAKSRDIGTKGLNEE

| Porcine Atria EC25 (Y75 value) [1] [µM] | Rabbit Psoas Y125 value (marked #) ([2]; concentration required to increase myosin ATP-ase activity by 25%) | Porcine Ventricle EC25 (Y75 value) [3] [µM] | Rabbit Psoas EC25 (Y75 value) [2] [µM] | SMILES |
| --- | --- | --- | --- | --- |
| 73.54 | – | 100 | 11.968 | CC(NC(=O)Cn1c(=O)[nH]c2ccccc2c1=O)c1ccccc1Br (stereo not drawn) [Compound 524, N-(1-(2-bromophenyl)ethyl)-2-(2,4-dioxo-1,4-dihydroquinazolin-3(2H)-yl)acetamide] |
| 23.51 | – | 100 | 5.727 | CC(NC(=O)Cn1c(=O)[nH]c2ccccc2c1=O)c1cc(F)ccc1F (stereo not drawn) [Compound 525, N-(1-(2,5-difluorophenyl)ethyl)-2-(2,4-dioxo-1,4-dihydroquinazolin-3(2H)-yl)acetamide] |
| 100 | – | 100 | 100 | CC(NC(=O)Cn1c(=O)[nH]c2ccccc2c1=O)c1nccs1 (stereo not drawn) [Compound 601, 2-(2,4-dioxo-1,4-dihydroquinazolin-3(2H)-yl)-N-(1-(thiazol-2-yl)ethyl)acetamide] |
| 100 | – | 100 | 100 | Cc1nn(C)cc1C(C)NC(=O)Cn1c(=O)[nH]c2ccccc2c1=O (stereo not drawn) [Compound 602, N-(1-(1,3-dimethyl-1H-pyrazol-4-yl)ethyl)-2-(2,4-dioxo-1,4-dihydroquinazolin-3(2H)-yl)acetamide] |
| 100 | – | 100 | 100 | CC(NC(=O)Cn1c(=O)[nH]c2ccccc2c1=O)c1cnn(C)c1 (stereo not drawn) [Compound 603, 2-(2,4-dioxo-1,4-dihydroquinazolin-3(2H)-yl)-N-(1-(1-methyl-1H-pyrazol-4-yl)ethyl)acetamide] |
| 100 | – | 100 | 100 | CC(NC(=O)Cn1c(=O)[nH]c2ccccc2c1=O)c1ccco1 (stereo not drawn) [Compound 604, 2-(2,4-dioxo-1,4-dihydroquinazolin-3(2H)-yl)-N-(1-(furan-2-yl)ethyl)acetamide] |
| 100 | – | 100 | 100 | CC(NC(=O)Cn1c(=O)[nH]c2ccccc2c1=O)C1CCCC1 (stereo not drawn) [Compound 605, N-(1-cyclopentylethyl)-2-(2,4-dioxo-1,4-dihydroquinazolin-3(2H)-yl)acetamide] |
| 100 | – | 100 | 100 | CC(NC(=O)Cn1c(=O)[nH]c2ccccc2c1=O)c1cccs1 (stereo not drawn) [Compound 606, 2-(2,4-dioxo-1,4-dihydroquinazolin-3(2H)-yl)-N-(1-(thiophen-2-yl)ethyl)acetamide] |
| 100 | – | 100 | 100 | COc1cc2c(cc1OC)C(NC(=O)Cn1c(=O)[nH]c3ccccc3c1=O)CC2 (stereo not drawn) [Compound 703, N-(5,6-dimethoxy-2,3-dihydro-1H-inden-1-yl)-2-(2,4-dioxo-1,4-dihydroquinazolin-3(2H)-yl)acetamide] |

The remaining lines, values behind:

| SMILES | Porcine Atria EC25 (Y75 value) [1] [µM] | Rabbit Psoas Y125 value (marked #) ([2]; concentration required to increase myosin ATP-ase activity by 25%) | Porcine Ventricle EC25 (Y75 value) [3] [µM] | Rabbit Psoas EC25 (Y75 value) [2] [µM] |
| --- | --- | --- | --- | --- |
| C[C@H](NC(=O)Cn1c(=O)c2cc(F)ccc2n(C)c1=O)c1ccc(F)cc1F [Compound 404, (S)-N-(1-(2,4-difluorophenyl)ethyl)-2-(6-fluoro-1-methyl-2,4-dioxo-1,4-dihydroquinazolin-3(2H)-yl)acetamide] | 12.2 | 100^# ^ μM | 100 | – |
| C[C@H](NC(=O)Cn1c(=O)[nH]c2cc(C(F)(F)F)ccc2c1=O)c1ccc(F)cc1F [Compound 405, (S)-N-(1-(2,4-difluorophenyl)ethyl)-2-(2,4-dioxo-7-(trifluoromethyl)-1,4-dihydroquinazolin-3(2H)-yl)acetamide] | 100 | – | 100 | 100 |
| C[C@H](NC(=O)Cn1c(=O)[nH]c2c(F)cccc2c1=O)c1ccc(F)cc1F [Compound 406, (S)-N-(1-(2,4-difluorophenyl)ethyl)-2-(8-fluoro-2,4-dioxo-1,4-dihydroquinazolin-3(2H)-yl)acetamide] | 63.31 | – | 100 | 12.297 |
| C[C@H](NC(=O)Cn1c(=O)[nH]c2cc(Cl)ccc2c1=O)c1ccc(F)cc1F [Compound 407, (S)-2-(7-chloro-2,4-dioxo-1,4-dihydroquinazolin-3(2H)-yl)-N-(1-(2,4-difluorophenyl)ethyl)acetamide] | 0.3539 | – | 100 | 7.16 |
| C[C@H](NC(=O)Cn1c(=O)[nH]c2c(Cl)cccc2c1=O)c1ccc(F)cc1F [Compound 408, (S)-2-(8-chloro-2,4-dioxo-1,4-dihydroquinazolin-3(2H)-yl)-N-(1-(2,4-difluorophenyl)ethyl)acetamide] | 100 | – | 100 | 100 |
| CC(C)CN(C(=O)Cn1c(=O)[nH]c2ccccc2c1=O)C(C)c1ccc(F)cc1F (stereo not drawn) [Compound 506, N-(1-(2,4-difluorophenyl)ethyl)-2-(2,4-dioxo-1,4-dihydroquinazolin-3(2H)-yl)-N-isobutylacetamide] | 33.59 | – | 29.03 | 65.656 |
| O=C(Cn1c(=O)[nH]c2ccccc2c1=O)NC(c1ccc(Cl)cc1)c1cccs1 (stereo not drawn) [Compound 515, N-((4-chlorophenyl)(thiophen-2-yl)methyl)-2-(2,4-dioxo-1,4-dihydroquinazolin-3(2H)-yl)acetamide] | 100 | – | 100 | 100 |
| Cc1ccc(C(NC(=O)Cn2c(=O)[nH]c3ccccc3c2=O)c2ccccc2)cc1C (stereo not drawn) [Compound 516, N-((3,4-dimethylphenyl)(phenyl)methyl)-2-(2,4-dioxo-1,4-dihydroquinazolin-3(2H)-yl)acetamide] | 100 | – | 100 | 100 |
| CC(NC(=O)Cn1c(=O)[nH]c2ccccc2c1=O)c1cc(F)ccc1N(C)C (stereo not drawn) [Compound 518, N-(1-(2-(dimethylamino)-5-fluorophenyl)ethyl)-2-(2,4-dioxo-1,4-dihydroquinazolin-3(2H)-yl)acetamide] | 100 | – | 100 | 100 |
| CC(NC(=O)Cn1c(=O)[nH]c2ccccc2c1=O)c1cccc(F)c1 (stereo not drawn) [Compound 519, 2-(2,4-dioxo-1,4-dihydroquinazolin-3(2H)-yl)-N-(1-(3-fluorophenyl)ethyl)acetamide] | 79.37 | – | 100 | 100 |
| COc1ccc(F)cc1C(C)NC(=O)Cn1c(=O)[nH]c2ccccc2c1=O (stereo not drawn) [Compound 520, 2-(2,4-dioxo-1,4-dihydroquinazolin-3(2H)-yl)-N-(1-(5-fluoro-2-methoxyphenyl)ethyl)acetamide] | 100 | – | 100 | 100 |
| CC(c1ccc(F)cc1F)N(C)C(=O)Cn1c(=O)[nH]c2ccccc2c1=O (stereo not drawn) [Compound 521, N-(1-(2,4-difluorophenyl)ethyl)-2-(2,4-dioxo-1,4-dihydroquinazolin-3(2H)-yl)-N-methylacetamide] | 100 | – | 100 | 1.26 |
| COc1cccc(C(C)NC(=O)Cn2c(=O)[nH]c3ccccc3c2=O)c1 (stereo not drawn) [Compound 522, 2-(2,4-dioxo-1,4-dihydroquinazolin-3(2H)-yl)-N-(1-(3-methoxyphenyl)ethyl)acetamide] | 100 | – | 100 | 100 |
| CC(NC(=O)Cn1c(=O)[nH]c2ccccc2c1=O)c1ccccc1Cl (stereo not drawn) [Compound 523, N-(1-(2-chlorophenyl)ethyl)-2-(2,4-dioxo-1,4-dihydroquinazolin-3(2H)-yl)acetamide] | 7.86 | – | 100 | 16.05 |
